Consider two molecules from patent publication US20010007856A1, “METHOD FOR PREVENTING AND TREATING AT A SUPERACUTE PHASE, AGAINST NEUROLOGICAL DEFICITS OR NEURONAL DEATH IN BRAIN ISCHEMIA AND PATHOLOGICAL CONDITIONS” (priority 1997, published 2001).

Series [1] has as its system guinea pigs (Hartley strain, male). The following applies: guinea pig, in vivo; cited from earlier work.
Series [2] deals with SD rats. The following applies: oral, 60, 200, 600 mg/kg/day, cited from earlier work.
The subject of series [3] is rhesus monkeys. The following applies: oral, 3 months; 300, 1,000, 3,000 mg/kg/day; cited from earlier work.
A further series is described as follows: physchem. The format is physicochemical. The source says:
(§1) L-threo-DOPS, whose molecular formula is C9H11NO5, is white or light brown crystals or crystalline powder with no taste or odor. […] It is difficult to measure a clear melting point or decomposition point for L-threo-DOPS. […] DL-threo-DOPS, which contains 50% L-threo-DOPS, can also be used in this invention. Hereafter, L-threo-DOPS and DL-threo-DOPS are generically denoted as “threo-DOPS”.

For series [4], the system named is beagle dogs. The following applies: oral, 3 months; 200, 600, 2,000 mg/kg/day; cited from earlier work.
A further series has as its system Mice, ICR strain. The following applies: cited from earlier work; for LD50: mouse, in vivo.
Series [5] deals with patients with brain ischemia (subarachnoid hemorrhage, cerebral infarction, brain injury, brain hemorrhage). The note with it: human, in vivo. As for the experimental part:
In order further to examine the neuroprotective effect in cerebral ischemia indicated from the experiment, a clinical preliminary study was conducted.
After the neck clipping surgery, 500 mg/day of “DOPS” (registered trademark, Sumitomo Pharmaceuticals Co., Ltd., Japan) was administered for 5 days.
Neck clipping was conducted on the day of onset, when the patient's condition was Hunt & Kosnic Grade IV. From the third day after subarachnoid hemorrhage, 500 mg/day of “DOPS” (registered trademark) was administered for 5 days.
Neck clipping was conducted on the day of onset, when the patient's condition was Hunt & Kosnic Grade IV. Since consciousness disturbance (semicoma), hyperventilation, and reduced light reflex were observed on the sixth day after surgery, a diagnosis of impending cerebral herniation was established and 500 mg/day of “DOPS” (registered trademark) was administered for 5 days. […] Soon after discontinuation of administration, mydriasis was rapidly observed.
Left hemiplegia first appeared and consciousness disturbance (JCS:100) and mydriasis of the right eye were observed 2 days later. Immediately after that, external and internal decompressions was performed and 300 mg/day of “DOPS” (registered trademark) was simultaneously administered for 5 days.
From the time immediately after injury, the patient developed mydriasis in both eyes and deep coma due to brainstem hernia. […]

Series [6] relates to rhesus monkeys. The note with it: cited from earlier work.
In series [7] the test system is SD rats. The note with it: oral, 12 months, cited from earlier work.
The test system of series [8] is SD rats. The note with it: oral, 3 months, cited from earlier work.
For a further series, the system named is rabbits. The note with it: oral; 30, 100, 300 mg/kg/day; cited from earlier work.
In series [9] the test system is beagle dogs. The following applies: cited from earlier work.
The test system of another series is mice. The following applies: mouse, in vivo; cited from earlier work.
Series [10] relates to SD rats. The note with it: oral; 60, 200, 600 mg/kg/day; cited from earlier work.
The test system of a further series is cultured cells. The following applies: cited from earlier work.
In the next series the test system is Rats, SD strain. The note with it: cited from earlier work.
The test system of the next series is microorganisms. The note with it: cited from earlier work.
The nature of another series: solubility (descriptive). The class given is physicochemical.
Text: as §1

Series [11] concerns middle brain artery (MC) occulusion model Wistar rats. The series can be described thus: transient cerebral ischemia, middle brain artery (MC) occlusion model, infarction volume. The following applies: for reduction of size of cerebral infarction: MC occlusion 1 hour. The format is in vivo.
Series [12] concerns beagle dogs. The note with it: oral, 12 months; 125, 500, 2,000 mg/kg/day; cited from earlier work.
Series [13] has as its system SD rats (male and female). The note with it: oral; 60, 200, 600 mg/kg/day; cited from earlier work.
The conditions of series [14]: prior art feature; cited from earlier work.

Each structure is given as a SMILES string. Where two headings read alike, the source gives them in different places. A value given as a limit tells only on which side of the number the result lay.

With `N[C@H](C(=O)O)[C@H](O)c1ccc(O)c(O)c1` [L-threo-DOPS, (−)-(2S, 3R)-2-amino-3-hydroxy-3-(3,4-dihydroxyphenyl) propionic acid], the Endodermoreaction result in series [1] was “negative”. In addition, the PCA reaction result in series [1] was “negative”. The intra-gel sedimentation reaction result in [1] is “negative”. The systemic anaphylaxis reaction result in [1] is given as “negative”. In addition, the other influence entry in the series with SD rats [2] and in the series with SD rats [10] was “No other influence was observed” throughout. For the same molecule, the “dose with lower body weights of fetuses and increased occurrence of undulating ribs” value in the series with SD rats [2] (restorable after birth) is reported as not below 200 mg/kg. Further, the “abnormality in various observations and testing evaluations” value in the series with rhesus monkeys [3], in the series on beagle dogs [4] and with beagle dogs [12] was “no abnormality was observed” in each case. Besides, in “physchem”, the pKa amounted to 7.88. The “general symptoms in acute toxicity” value in the series on Mice, ICR strain (mice) is “reduced voluntary motions, deep breathing and bradypnea”; with rhesus monkeys [6] (rhesus monkeys) it was “no abnormal symptom was observed”; in the series on beagle dogs [9] (dogs), “no abnormal symptom was observed”; in the series on Rats, SD strain (rats), “reduced voluntary motions, deep breathing and bradypnea”. In addition, the LD50 with Mice, ICR strain (iv) is more than 100 mg/kg; in the series with Mice, ICR strain (po), more than 10000 mg/kg; in the series with Mice, ICR strain, more than 10000 mg/kg; in the series with rhesus monkeys [6] (rhesus monkey, in vivo, po), more than 5000 mg/kg; with beagle dogs [9] (dog, in vivo, po), more than 5000 mg/kg; with Rats, SD strain (rat, in vivo, po), more than 10000 mg/kg. In addition, the adverse effects entry in series [5] is listed as “No adverse effects were observed”. Besides, the “dose with suppression of weight increases, increase in thymus weight, necrosis of kidney uriniferous tubuli, degeneration of kidney glomeruli, etc.” value in the series on SD rats [7] (10, 30, 100, 300 mg/kg/day) was not below 30 mg/kg/day. In the series with SD rats [7], the “dose with drooling, myocarditis and calcification of cardiac muscles, etc.” value is on record as not below 100 mg/kg/day. Moreover, the “dose with suppressed voluntary motions, necrosis of kidney uriniferous tubuli, necrosis of cardiac muscles, etc.” value in the series with SD rats [8] (60, 300, 1,500 mg/kg/day) is recorded as not below 60 mg/kg/day. The dose with drooling with SD rats [8] is recorded as 1,500 mg/kg/day. The “dose with suppression of weight increases and such” value in the series with SD rats [8] is given as not below 300 mg/kg/day. The “influence on the rabbits” value in the series on rabbits is “no influence on the rabbits was observed”. For the same molecule, in the series on mice, the “mutagenicity, micronucleus” value is given as “no mutagenicity was observed”. Also, the “dose with shortening of the pregnancy period” value in the series on SD rats [10] is reported as 600 mg/kg. In addition, the “dose with suppression of neonatal development after birth” value with SD rats [10] was not below 60 mg/kg. For the same molecule, in the series on cultured cells, the “mutagenicity, chromosome abnormality” value is given as “no mutagenicity was observed”. For the same molecule, in the series with microorganisms, the “mutagenicity, back mutation” value was “no mutagenicity was observed”. In addition, the “solubility in ether, ethanol and glacial acetic acid” value in the series “solubility (descriptive)” (ether, ethanol, glacial acetic acid) is recorded as “dissolves very little”. In the series “solubility (descriptive)” (water), the solubility in water result was “dissolves only slightly”. In addition, the “reduction of size of cerebral infarction” value in series [11] (L-threo-DOPS 400 mg/kg (+ BSZ 2 mg/kg) i.p. 30 minutes before occlusion, FIG. 1) is “about 40%”; in series [11] (L-threo-DOPS 400 mg/kg (+ BSZ 2 mg/kg) i.p. one hour after occlusion, FIG. 2), “about 40%”. Also, the “regression effect on cerebral infarction” value in series [11] (MC occlusion 24 hours, L-threo-DOPS 400 mg/kg (+ BSZ 2 mg/kg) i.p. one hour after occlusion, FIG. 3) is “no regression effect was observed”. Besides, in series [13], the “influence on mating rate, conception rate, nidation number, embryo/neonate death, teratogenic actions or fetal development” value is recorded as “no influence was observed”.

Turning to `N[C@H](C(=O)O)[C@H](O)c1ccc(O)c(O)c1` [threo-DOPS], the “passage through the blood-brain barrier” value in series [14] was “passes through the blood-brain barrier into the brain”.
